According to patent US20070203066A1, “Compositions and methods for inhibiting cellular proliferation” (priority 2005, published 2007):
pIC50: −log10 of the molar value. Non-standard residues stand in square brackets, D forms with d. Primed or numbered codes have the meaning given here. No end group written: not given here. Ida = iminodiacetic acid linker, its two carboxyls bind the Lys side-chain amines of two peptides, giving a homodimer; Ida(3) = iminodiacetic acid linker, Lys side-chain amines bound to its two carboxyl groups; Ida″ = iminodiacetic acid linker bound to the Lys side-chain amine, forming a dimer; Cha = N[C@@H](CC1CCCCC1)C(=O)O; ATA = not defined here

The molecules below were run on HUVECs. Settings: 48 h.
Assay type: cell-based
In short: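 Proliferation read-out: BrdU incorporation after 48-hour culture (37 ° C, 5% CO2) with graded peptide doses. Cells were in EBM with 2% FCS at 5,000 per well, driven by VEGF (5 ng/ml) or bFGF (10 ng/ml), added after ≥12-hour attachment.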

| Molecule | pIC50 |
| --- | --- |
| CC[C@H](C)[C@H](NC(=O)[C@H](Cc1c[nH]cn1)NC(=O)[C@@H](NC(=O)[C@H](Cc1c[nH]cn1)NC(=O)[C@H](CCC(N)=O)NC(=O)[C@H](CCCNC(=N)N)NC(=O)[C@H](CCCNC(=N)N)NC(=O)[C@H](CCCNC(=N)N)NC(=O)[C@H](CCCNC(=N)N)NC(=O)[C@H](Cc1c[nH]cn1)NC(C)=O)C(C)C)C(=O)N[C@@H](Cc1ccc(O)cc1)C(=O)N[C@@H](Cc1ccccc1)C(=O)N[C@@H](CCCCNC(=O)CN(CC(=O)NCCCC[C@H](NC(=O)[C@H](Cc1ccccc1)NC(=O)[C@H](Cc1ccc(O)cc1)NC(=O)[C@@H](NC(=O)[C@H](Cc1c[nH]cn1)NC(=O)[C@@H](NC(=O)[C@H](Cc1c[nH]cn1)NC(=O)[C@H](CCC(N)=O)NC(=O)[C@H](CCCNC(=N)N)NC(=O)[C@H](CCCNC(=N)N)NC(=O)[C@H](CCCNC(=N)N)NC(=O)[C@H](CCCNC(=N)N)NC(=O)[C@H](Cc1c[nH]cn1)NC(C)=O)C(C)C)[C@@H](C)CC)C(N)=O)C(=O)CCNC(=O)OC(C)(C)C)C(N)=O [Peptide 322] | > 5.00 |

Same assay, conditions: HUVEC proliferation, bFGF at 10 ng/ml or VEGF at 5 ng/ml, 48 hours, BrdU incorporation; read-out: IC50 on HUVECs

| Molecule | pIC50 |
| --- | --- |
| 468 (Ac-ARRIRQAVAIYFK(Ida(3)); not fully specified (C-terminus); also: homodimer via Ida linker on Lys13 side chain) [compound 468] | < 4.52 |
| KTKRKRKKQRVAAAYEEIFVQNM [compound 50] | < 4.52 |
| 204 (Ac-RRARRQAVRIIF; also: dimer: C-terminal Phe bound to an amino group of a Lys linker, 2 chains per Lys) [compound 204] | > 5.00 |
| 212 (Ac-AARRRQRVAIIF; also: dimer: Phe C-termini joined via Lys linker) [compound 212] | < 4.52 |
| 317 (Ac-ARRRRQHVAIYFK(Ida)-NH2; also: homodimer via Ida linker on Lys13 side chain) [compound 317] | > 5.00 |
| 198 (Ac-RARARQRVRIIF; also: dimer: C-terminal Phe bound to an amino group of a Lys linker, 2 chains per Lys) [compound 198] | > 5.00 |
| 265 (Ac-RRRRRQAVAIGFK; not fully specified (C-terminus); also: homodimer: side chain of Lys13 bound to an Ida linker) [compound 265] | > 5.00 |
| 412 (Ac-VRRRRQAVAIYFK; not fully specified (residue 13, C-terminus); also: homodimer via Ida linker on Lys side chains, linker at 13 via Ida, other end not in the chain) [compound 412] | > 5.00 |
| KRKKQRVKIAYEEIFVKNM [compound 10] | 4.52 to 5.00 |
| KRKRKKQRVKIIF [compound 81] | 4.52 to 5.00 |
| KTKRKRKKQRVKIAYEEIFVQ [compound 26] | > 5.00 |
| 392 (Ac-ARRRRQAVPIYFK; not fully specified (residue 13, C-terminus); also: homodimer of residues 1-13 via Ida linker at Lys13 side chain) [compound 392] | < 4.52 |
| 401 (Ac-ERRRRQAVAIYFK(Ida(3))-NH2; also: homodimer via Ida linker on Lys13 side chain, Ida amine Boc) [compound 401] | > 5.00 |
| 174 (Ac-RARRRQRVRIIF; also: homodimer via C-terminal Lys linker) [compound 174] | > 5.00 |
| 189 (Ac-RRRRRQHVRIIF; also: dimer: C-terminal Phe bound to an amino group of a Lys linker, 2 chains per Lys) [compound 189] | > 5.00 |
| 417 (Ac-RRRRRQAVAIKFV; not fully specified (residue 11); also: homodimer via Ida linker on Lys side chains, linker at 11 via Ida, other end not in the chain) [compound 417] | > 5.00 |
| 408 (Ac-PRRRRQAVAIYFK; not fully specified (residue 13, C-terminus); also: homodimer via Ida linker on Lys side chains, linker at 13 via Ida, other end not in the chain) [compound 408] | > 5.00 |
| 307 (Ac-RRRRRQAVRK(Ida)IFV; also: homodimer via Ida linker on Lys10 side chain) [compound 307] | > 5.00 |
| 199 (Ac-RARRAQRVRIIF; also: dimer: C-terminal Phe bound to an amino group of a Lys linker, 2 chains per Lys) [compound 199] | > 5.00 |
| 335 (Ac-RHRRHQHVRIYFK; not fully specified (residue 13, C-terminus); also: homodimer via Ida linker on Lys13 side chain) [compound 335] | > 5.00 |
| 249 (Ac-RRRRRQAVAIEFK; not fully specified (C-terminus); also: homodimer: side chain of Lys13 bound to an Ida linker) [compound 249] | 4.52 to 5.00 |
| 377 (Ac-ARRRRQRVAIMFK-NH2; not fully specified (residue 13); also: homodimer via Ida linker on Lys13 side chain, Boc on Ida amine) [compound 377] | > 5.00 |
| KTKRKRKKQRVKIAYAAIFVQNM [compound 48] | < 4.52 |
| 330 (XRRHRQHVRIYFK; not fully specified; Xaa = Acylated Histidine; The side chain of Lysine at position 13 is covalently bound to an Ida linker forming a homodimer of residues 1 through 13.) [compound 330] | > 5.00 |
| 497 (Ac-PRLRRQAVAIYFK(Ida″); not fully specified (C-terminus); also: homodimer via Ida linker on Lys13 side chain) [compound 497] | 4.52 to 5.00 |
| 334 (Ac-ARRRRQRVAIYFK; not fully specified (residue 13, C-terminus); also: homodimer via Ida linker on Lys13 side chain, acetate salt) [compound 334] | > 5.00 |
| 379 (Ac-ARRRRQRVAISFK-NH2; not fully specified (residue 13); also: homodimer via Ida linker on Lys13 side chain, Ida amine Boc) [compound 379] | > 5.00 |

| Molecule | pIC50 |
| --- | --- |
| KKQRVKIAYEEIF [compound 70] | < 4.52 |
| 344 (Ac-ARRRRQRVAIY[Cha]K-NH2; not fully specified (residue 13); also: homodimer: Lys13 side chains joined by Ida (iminodiacetic acid) linker) [compound 344] | > 5.00 |
| KTKRKRKKQRVKIAY [compound 36] | < 4.52 |
| 506 (Ac-ARRRRQRVAIYFKGGRGDSP; also: homodimer via Ida linker at Lys13 side chain) [compound 506] | > 5.00 |
| 467 (Ac-ARK(Ida(3))RRQAVAIYF; also: homodimer via Ida linker on Lys3 side chain) [compound 467] | < 4.52 |
| 306 (Ac-RRRRRQAVRIK(Ida)FV; also: homodimer via Ida linker on Lys11 side chain) [compound 306] | > 5.00 |
| 299 (Ac-RRRRRQAVRIGIGFK-NH2; also: homodimer: Lys15 side chain bound to Ida linker) [compound 299] | > 5.00 |
| 446 (Ac-RRRRRQAVAIYFK(ATA); reading uncertain; also: homotrimer via Ata linker at K13) [compound 446] | > 5.00 |
| RKKQRVKIAYEEIFVQNM [compound 23] | 4.52 to 5.00 |
| 361 (Ac-ARRRRQRVAIYFK; not fully specified) [compound 361] | < 4.52 |
| KTKRKRKKQRVKI [compound 38] | < 4.52 |
| 319 (Ac-ARRRRQHVHIYFK(Ida)-NH2; also: homodimer via Ida linker on Lys13 side chain) [compound 319] | > 5.00 |
| KTKRKRKKQRVKIIFVQNM [compound 33] | > 5.00 |
| 390 (Ac-ARRRRQAVMIYFK; not fully specified (residue 13, C-terminus); also: homodimer of residues 1-13 via Ida linker at Lys13 side chain) [compound 390] | > 5.00 |
| KTKRKRKKQRVKIAYEEIF [compound 16] | 4.52 to 5.00 |
| 313 (Ac-RARRRQAVAIGFK(Ida)-NH2; also: homodimer via Ida linker on Lys13 side chain) [compound 313] | 4.52 to 5.00 |
| KTARKRKKQRVKIIFVQNM [compound 121] | > 5.00 |
| KTKRKRKKQRVKRAYEEIF [compound 136] | < 4.52 |
| 466 (Ac-AK(Ida(3))RRRQAVAIYF; also: homodimer via Ida linker on Lys2 side chain) [compound 466] | < 4.52 |
| 246 (Ac-RRRRHQHVRIIF; also: homodimer: C-termini of two chains bound to the two amines of a Lys linker) [compound 246] | > 5.00 |
| 418 (Ac-ARRRRQPVAIYFK; not fully specified (residue 13, C-terminus); also: homodimer of residues 1-13 via Ida linker on K13 side chain) [compound 418] | > 5.00 |
| KTKKQRVKIAYEEIFVQNM [compound 57] | < 4.52 |
| 188 (Ac-RRRRHQRVRIIF; also: dimer: C-terminal Phe bound to an amino group of a Lys linker, 2 chains per Lys) [compound 188] | > 5.00 |
| KTKRKRKKQRVKIAYEEIFVK [compound 14] | > 5.00 |
| 235 (Ac-RHHRRQRVRIIF; also: dimer via C-terminal Phe to Lys linker) [compound 235] | > 5.00 |
| KTKRKRKKQRVKIIFVQAM [compound 106] | > 5.00 |
